How the values were obtained:
[1] = tested on: P-gp; test: P-gp expression in MCF-7 breast adenocarcinoma cells, Western blot; type: cell-based, human; conditions: MCF-7 cells, 80 or 160 μg/ml purified SipA, 3 h, compared to buffer control
Description: (§1) FIG. 3A-B. SipA-induced, dose-dependent P-gp down-regulation is conserved in other cancer cell types. (FIG. 3A) MCF-7 breast adenocarcinoma cells were left untreated (−) or exposed to 80 μg/ml or 160 μg/ml of purified SipA for 3 h. Normalized whole cell lysates were then probed for P-gp and GAPDH. Densitometry was analyzed by ImageJ and presented as relative to the untreated cells. (FIG. 3B) UM-UC-3 human bladder carcinoma cells were left untreated or exposed to 80 μg/ml or 160 μg/ml of purified SipA for 3 h, and then probed and analyzed as in (FIG. 3A).
(§2) Cell culture. The human intestinal adenocarcinoma cell line HCT8 were maintained in accordance with (8). The human breast adenocarcinoma cell line MCF-7, the human bladder transitional cell carcinoma cell line UM-UC-3, and the CT26 murine colon carcinoma cell line, were purchased from ATCC and were all maintained in DMEM F-12 containing a 10% fetal bovine serum, 100 U/ml penicillin, and 10 μg/ml streptomycin at 37° C. in 90% relative humidity and 5% CO2.
(§3) Cell lysates and Western Blot analysis. Cell lysates were harvested from S. Typhimurium-infected HCT8 cells, as previously described (8). Proteins were normalized to 30 μg, separated by SDS/PAGE (4-12% gradient; Biorad, Hercules, Calif.), and transferred to nitrocellulose (Bio-Rad; 0.45μ membrane). […]

[2] = tested on: PERP; test: PERP protein expression in human colonic cancers in vitro; type: cell-based
Text: (§4) In a further embodiment, SipA increases the level of expression of PERP in cells, PERP is a tetraspan membrane protein originally identified as a transcriptional target of the p53 tumor suppressor (10). P53 regulates the cell cycle and, thus, functions as a tumor suppressor that is involved in preventing cancer. As such, p53 has been described as “the guardian of the genome”, referring to its role in conserving stability by preventing genome mutation. Fundamental to the tumor-suppressor role of p53 is the ability to engage in apoptosis. […] Studies investigating the interaction of SipA with the surface epithelial cells have been carried out (13, 14). The inventors used a split-ubiquitin based yeast-two hybrid analysis system (Dualsystems Biotech) with full length SipA as bait and a human cancer colon mRNA-based library as prey, to identify PERP, a p53 induced apoptotic effector, as a SipA interacting partner. […] While an understanding of the mechanism is not necessary, and without limiting the invention to any particular mechanism, and although the precise function of PERP in eliciting an apoptotic response remains unknown, initial reports indicate that PERP expression causes nuclear localization of p53 and increases the level of transcriptionally active p53 protein. […] Including increased protein stability, postranslational modifications, and enhanced nuclear accumulation. […]

[3] = tested on: P-gp; test: P-gp expression in HCT8 cell monolayers, Western blot; type: cell-based, human
Description: FIG. 5A-B. SipA-AuNPs decrease the expression of P-gp at a SipA dose nearly 500 times lower than free SipA. (FIG. 5A) Schematic presentation of P-gp knockdown mechanism via SipA-AuNP. (FIG. 5B) HCT8 cell monolayers were left untreated (−), exposed to […] 160 μg/ml of purified SipA, AuNP alone or AuNP-SipA (0.72 μg/ml of SipA).
as §2
as §3, with “membrane). Immuno-blots were performed using the murine monoclonal P-gp C219 antibody (calbiochem) diluted at 1:100.” for “membrane).”

[4] = tested on: P-gp; test: P-gp expression in UM-UC-3 bladder carcinoma cells, Western blot; type: cell-based, human; conditions: UM-UC-3 cells, 80 or 160 μg/ml purified SipA, 3 h
Description: as §1, §2, §3

[5] = biological target: T1, PERP (Homo sapiens, UniProt Q96FX8); test: Split-ubiquitin yeast-two hybrid analysis with full length SipA as bait; type: binding; conditions: human cancer colon mRNA-based library as prey; epithelial surfaces
T1 construct: host or cells: yeast (split-ubiquitin two-hybrid system)
Text: as §4

[6] = tested on: P-gp; test: Colonic P-gp expression in mice colonized with S. Typhimurium strains; type: in vivo, Balb/c mice; conditions: SipA over-expressing strain (AJK63) vs isogenic SipA mutant strain (EE633), proximal colon, 48 hours
Text: FIG. 6A-D. The combined effects of SipA-AuNPs and exogenous doxorubicin prevent tumor growth. (FIG. 6A) Balb/c mice bearing subcutaneous CT26 tumors (mean tumor volumes of approximately 0.5 mm^3) received IP treatments for 15 days as described in the Materials and Methods section, (▪) Untreated, (●) AuNP alone, (▴A) SipA-AuNPs, (♦) Doxorubicin or (□) SipA-AuNP plus Doxorubicin (DOX). SipA-AuNPs conjugates improve the efficacy of doxorubicin. (*P<0.0001). (FIG. 6B) Accumulation of gold nanoparticles in the tumors shown in (FIG. 6A) was evaluated by SEM and X-ray microanalysis. Color intensity represents tumor penetration. The sections of tumor were imaged for X-ray analysis and X-ray mapping as described in the Materials and Methods section. (FIG. 6C) P-gp expression in the tumors shown in (FIG. 6A) was evaluated by western blot. Tumors were homogenized and lysed. […] Levels of P-gp were quantified by densitometry and presented on the bar cart. […] Levels of P-gp were quantified by densitometry and presented on the bar graph. […]
Since normal healthy intestinal epithelium display baseline expression of P-gp, the inventors evaluated the colonic expression of P-gp in mice colonized with a S. Typhimurium strain that over-expresses SipA (AJK63) compared to mice colonized with an equivalent amount of an isogenic SipA mutant strain (EE633). […]

[7] = tested on: CT26 tumors; test: Subcutaneous CT26 murine colon cancer model, tumor volume; type: in vivo, Balb/c mice; conditions: doxorubicin alone, 10 mg/kg
Text: FIG. 6A-D. The combined effects of SipA-AuNPs and exogenous doxorubicin prevent tumor growth. (FIG. 6A) Balb/c mice bearing subcutaneous CT26 tumors (mean tumor volumes of approximately 0.5 mm^3) received IP treatments for 15 days as described in the Materials and Methods section, (▪) Untreated, (●) AuNP alone, (▴A) SipA-AuNPs, (♦) Doxorubicin or (□) SipA-AuNP plus Doxorubicin (DOX). SipA-AuNPs conjugates improve the efficacy of doxorubicin. (*P<0.0001). (FIG. 6B) Accumulation of gold nanoparticles in the tumors shown in (FIG. 6A) was evaluated by SEM and X-ray microanalysis. Color intensity represents tumor penetration. The sections of tumor were imaged for X-ray analysis and X-ray mapping as described in the Materials and Methods section. (FIG. 6C) P-gp expression in the tumors shown in (FIG. 6A) was evaluated by western blot. Tumors were homogenized and lysed. Whole cell lysates were normalized for protein levels and probed for P-gp. Levels of P-gp were quantified by densitometry and presented on the bar cart. Densitometry was performed using ImageJ and results are presented as relative to the untreated cells. […] Levels of P-gp were quantified by densitometry and presented on the bar graph. […]
The subcutaneous tumor model. […] Tumor size was measured using calipers and volumes were estimated using the formula 0.5×length×(width)^2. […]

Chain of P-gp (P08183 whole entry): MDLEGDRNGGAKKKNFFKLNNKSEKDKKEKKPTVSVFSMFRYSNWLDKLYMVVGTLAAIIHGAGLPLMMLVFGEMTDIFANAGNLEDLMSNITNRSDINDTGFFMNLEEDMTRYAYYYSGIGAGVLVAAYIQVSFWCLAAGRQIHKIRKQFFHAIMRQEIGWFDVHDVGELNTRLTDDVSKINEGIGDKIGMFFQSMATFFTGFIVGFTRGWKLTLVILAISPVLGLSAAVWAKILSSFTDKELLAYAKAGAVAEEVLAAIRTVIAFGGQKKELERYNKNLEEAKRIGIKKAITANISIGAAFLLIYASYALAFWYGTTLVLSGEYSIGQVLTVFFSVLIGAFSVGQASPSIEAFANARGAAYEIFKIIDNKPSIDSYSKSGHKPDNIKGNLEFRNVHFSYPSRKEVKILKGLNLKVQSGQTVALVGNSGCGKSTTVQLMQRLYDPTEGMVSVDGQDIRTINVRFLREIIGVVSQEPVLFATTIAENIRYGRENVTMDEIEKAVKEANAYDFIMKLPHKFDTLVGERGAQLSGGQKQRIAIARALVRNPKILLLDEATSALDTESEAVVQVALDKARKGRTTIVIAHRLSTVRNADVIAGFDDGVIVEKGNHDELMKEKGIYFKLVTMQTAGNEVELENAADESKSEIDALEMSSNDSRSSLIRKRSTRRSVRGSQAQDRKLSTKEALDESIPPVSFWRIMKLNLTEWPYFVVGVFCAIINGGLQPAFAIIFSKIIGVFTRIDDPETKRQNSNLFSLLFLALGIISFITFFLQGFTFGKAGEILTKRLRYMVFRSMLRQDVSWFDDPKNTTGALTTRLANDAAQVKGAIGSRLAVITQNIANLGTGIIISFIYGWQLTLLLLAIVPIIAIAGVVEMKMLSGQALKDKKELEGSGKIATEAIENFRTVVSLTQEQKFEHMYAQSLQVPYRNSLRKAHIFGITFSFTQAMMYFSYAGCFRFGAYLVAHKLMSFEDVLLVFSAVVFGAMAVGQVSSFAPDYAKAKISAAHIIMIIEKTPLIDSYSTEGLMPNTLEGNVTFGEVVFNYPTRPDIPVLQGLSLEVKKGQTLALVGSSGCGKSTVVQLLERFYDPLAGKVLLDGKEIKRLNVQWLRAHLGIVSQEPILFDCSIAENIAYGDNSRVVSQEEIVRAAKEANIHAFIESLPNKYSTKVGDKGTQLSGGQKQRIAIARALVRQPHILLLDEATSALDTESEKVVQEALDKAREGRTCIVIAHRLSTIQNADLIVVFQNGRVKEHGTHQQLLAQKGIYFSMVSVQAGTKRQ
T1 sequence (Q96FX8 whole entry): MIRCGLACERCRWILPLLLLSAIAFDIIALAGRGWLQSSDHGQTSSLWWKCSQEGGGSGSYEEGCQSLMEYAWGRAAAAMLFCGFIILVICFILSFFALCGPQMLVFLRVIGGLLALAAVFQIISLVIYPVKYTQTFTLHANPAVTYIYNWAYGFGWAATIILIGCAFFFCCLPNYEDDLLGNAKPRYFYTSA

In the case of “SipA: Salmonella Typhimurium type III secreted effector protein, SEQ ID NO:01; purified as SipA-HA fusion protein”, the “reduction of P-gp expression” value [1] is reported as 40%, the PERP protein expression [2] is reported as “up-regulates the protein expression of PERP” and the “modulation of P-gp expression” value ([3]; HCT8 monolayers, 80 μg/ml or 160 μg/ml purified SipA-HA, 3 hours) is reported as “dose dependent ability to modulate P-gp to the same degree as wild-type S. Typhimurium”. For the same compound, the “reduction of P-gp expression” value [4] was 95%, the “interaction with PERP” value [5] was “bind to PERP at epithelial surfaces” and the “expression of P-gp in healthy murine intestinal epithelium” value [6] was “could modulate the expression of P-gp in healthy murine intestinal epithelium in vivo”.

`COc1cccc2c1C(=O)c1c(O)c3c(c(O)c1C2=O)C[C@@](O)(C(=O)CO)C[C@@H]3O[C@H]1C[C@H](N)[C@H](O)[C@H](C)O1` [doxorubicin] was tested, and the “effect on tumor size” value [7] was “minimal effect on tumor size”.

With lipopolysaccharide [reference compound] the “modulation of P-gp by lipopolysaccharide” value ([3]; HCT8, purified LPS from S. typhimurium 0.1 to 100 μg/ml, 3 h) was “not attributed to trace amounts of lipopolysaccharide”.

Source: US10835575B2, “Compositions and methods for treating disease using Salmonella T3SS effector protein (SipA)” (University of Massachusetts, priority 2013, dated 2020)
